“Also recorded” adds a separate entry of the source. Where no end group is shown, it is not given here. [ ]: non-standard residue; d: D form. Nle = CCCC[C@H](N)C(=O)O
Experiments:
Assay type in all cases: biochemical
[1] = target: T1, SMYD2 (Homo sapiens, UniProt Q9NRG4); assay: SPA kinetic analysis of SMYD2 methylation of peptide substrates; details: 200 nM SMYD2, 50 μM SAM, varied substrate concentration, mean of three independent measurements (Fig. 4D)
T1 construct: SMYD2 (full length) was expressed as a N-terminal glutathione S-transferase (GST) fusion; GST (N); made in house; host or cells: Escherichia coli BL21(DE3)
T1 sequence (Q9NRG4 whole entry, the tested form may be a part): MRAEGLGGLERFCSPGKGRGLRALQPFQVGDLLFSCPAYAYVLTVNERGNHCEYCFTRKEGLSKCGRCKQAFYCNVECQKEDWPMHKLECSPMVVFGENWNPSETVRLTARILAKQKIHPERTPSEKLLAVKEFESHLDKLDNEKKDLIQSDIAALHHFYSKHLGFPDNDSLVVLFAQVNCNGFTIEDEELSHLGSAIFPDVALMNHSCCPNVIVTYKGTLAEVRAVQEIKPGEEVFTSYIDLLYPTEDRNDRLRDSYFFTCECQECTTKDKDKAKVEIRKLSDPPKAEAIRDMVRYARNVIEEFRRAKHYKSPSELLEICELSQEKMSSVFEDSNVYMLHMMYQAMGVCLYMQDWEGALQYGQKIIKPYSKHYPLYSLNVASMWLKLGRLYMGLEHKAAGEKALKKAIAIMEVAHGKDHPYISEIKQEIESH
Description: (§1) Reactions (10 μl) containing 1 μg of KMT, 1 μg of a K-OPL set, and 1 μCi of ^3H-SAM (PerkinElmer) in KMT reaction buffer [50 mM tris (pH 8.8), 5 mM MgCl2, and 4 mM dithiothreitol] were incubated for 1 hour at room temperature. Reactions were stopped by adding trifluoracetic acid to a final concentration of 0.5%, neutralized by diluting with 135 μl of 50 mM NaHCO3, and transferred to streptavidin-coated FlashPlates (PerkinElmer). Plates were incubated for 15 min, sealed, and counted in a MicroBeta2 liquid scintillation counter (PerkinElmer) for 1 min per sample. Initial rate measure and kinetic analysis were performed using the same procedure with 200 nM SMYD2, 50 μM SAM (5:1 cold/hot ratio), and 80 μM substrate (initial rate measurements) or as indicated (kinetic analysis). IC50 measurements were performed using the same conditions with 5 μM PER2 peptide as a substrate.

[2] = target: T1, SMYD2; assay: SPA initial rate measurements with peptide substrates, SMYD2; details: 200 nM SMYD2, 50 μM SAM (5:1 cold/hot), 80 μM substrate, room temperature, mean of three independent measurements (Fig. 2F), text gives words only
From the text: To measure enzyme activity, we developed a scintillation proximity assay (SPA), which quantified the transfer of tritium-labeled methyl groups from the cofactor and methyl donor S-adenosylmethionine (SAM) to each K-OPL set (Fig. 1B). SPAs permit sensitive analysis of enzymatic activity and are advantageous when the reaction product is unknown. This platform enabled us to rapidly determine a KMT’s preference for any amino acid (except cysteine) at any position ± three positions from a target lysine.
as §1

[3] = target: T2, SET7/9 (Homo sapiens, UniProt Q8WTS6); assay: SPA initial rate measurements with peptide substrates, SET7/9; details: 3H-SAM, 50 μM SAM (5:1 cold/hot), 80 μM substrate, room temperature, mean of three independent measurements (Fig. 2E), text gives words only
T2 construct: purchased New England BioLabs M0223
T2 sequence (Q8WTS6 1-366): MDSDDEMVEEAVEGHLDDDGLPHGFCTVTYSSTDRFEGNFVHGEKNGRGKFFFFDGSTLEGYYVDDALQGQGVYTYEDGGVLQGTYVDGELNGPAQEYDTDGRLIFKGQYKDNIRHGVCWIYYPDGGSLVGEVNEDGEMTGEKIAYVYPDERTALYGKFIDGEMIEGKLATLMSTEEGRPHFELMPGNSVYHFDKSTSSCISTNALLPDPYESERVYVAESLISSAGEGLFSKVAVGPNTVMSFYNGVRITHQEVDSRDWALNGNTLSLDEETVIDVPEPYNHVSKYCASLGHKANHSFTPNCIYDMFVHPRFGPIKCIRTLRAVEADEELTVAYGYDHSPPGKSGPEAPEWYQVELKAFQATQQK

[4] = target: T2, SET7/9; assay: MALDI-TOF-MS and MS/MS analysis of methylation products, SET7/9; details: 200 nM KMT, 80 μM peptide, 50 μM SAM, 1 hour, room temperature; MALDI-TOF-MS (Fig. 3B)
Description: (§2) For MS experiments, 200 nM KMT, 80 μM peptide, and 50 μM SAM were incubated in KMT reaction buffer for 1 hour at room temperature. Reactions were quenched with 0.5% trifluoroacetic acid and analyzed by MS. KMT-reacted samples were deposited on a MALDI target plate (4 μl per spot) and mixed with 1 μl of matrix solution (α-cyano-4-hydroxycinnamic acid in 50% acetonitrile). MALDI-TOF-MS and MS/MS (positive ion mode at 1 kV) spectra were collected using SCIEX TOF/TOF 5800 MALDI MS spectrometer. The peptide fragmentation modeling and peak assignments were done using the Peptide Sequence Fragmentation Modeling tool (https://omics.pnl.gov/software/molecular-weight-calculator).

[5] = target: T1, SMYD2; assay: In vitro SMYD2 methyltransferase assay with protein substrates (SDS-PAGE, 3H fluorography); details: 1 μg of KMT, 1 μg of substrate, 1 μCi 3H-SAM, 1 hour, room temperature; 3H fluorography (Fig. 5A, 5B, fig. S5A)
Description: Reactions (10 μl) containing 1 μg of KMT, 1 μg of the indicated substrates, and 1 μCi of ^3H-SAM (PerkinElmer) in KMT reaction buffer were incubated for 1 hour at room temperature. Reactions were quenched by the addition of SDS loading buffer and resolved by SDS–polyacrylamide gel electrophoresis. Following the detection of total protein by Coomassie staining, gels were treated with EN^3HANCE (PerkinElmer) and dried, and methylated proteins were detected by autoradiography.
Fig. S5. In vitro SMYD2 assays with protein substrates. (A) Coomassie stained SDS-PAGE of recombinant control (HIS-GST), known substrates (p53, MAPKAPK3), and predicted substrates (PRDM11, GDAP1, MAP3K12) in the absence and presence of SMYD2. Reactions were carried out with 1 μg of SMYD2, 1 μg of substrate, and 1 μCi of 3H-SAM. 3H fluorograph shown below after 24 hour exposure at -80 °C (B) Cartoon repre- sentation of ZPK (PDB:
5CEN) showing plus and minus three amino acids from the target lysine (PO) as stick models.
(1 picture or pasted object on this page, not shown here)

[6] = target: T3, G9a (Homo sapiens, UniProt Q96KQ7); assay: SPA initial rate measurements with peptide substrates, G9a; details: 3H-SAM, 50 μM SAM (5:1 cold/hot), 80 μM substrate, room temperature, mean of three independent measurements (Fig. 2D), text gives words only
T3 construct: G9a (amino acids 913 to 1210) was produced as a 6XHis N-terminal fusion; 6XHis (N); made in house; host or cells: Escherichia coli BL21(DE3)
T3 sequence (Q96KQ7 913-1210): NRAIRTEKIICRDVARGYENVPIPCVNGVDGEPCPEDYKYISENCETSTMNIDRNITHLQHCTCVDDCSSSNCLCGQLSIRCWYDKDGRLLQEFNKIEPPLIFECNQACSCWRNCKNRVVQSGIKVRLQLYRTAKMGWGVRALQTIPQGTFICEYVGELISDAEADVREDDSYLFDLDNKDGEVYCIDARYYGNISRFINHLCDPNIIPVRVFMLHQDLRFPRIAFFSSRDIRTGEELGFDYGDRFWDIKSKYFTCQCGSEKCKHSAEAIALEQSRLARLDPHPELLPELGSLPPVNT

[7] = target: T3, G9a; assay: MALDI-TOF-MS and MS/MS analysis of methylation products, G9a; details: 200 nM KMT, 80 μM peptide, 50 μM SAM, 1 hour, room temperature; MALDI-TOF-MS (Fig. 3A)
Description: as §2

[8] = target: T1, SMYD2; assay: MALDI-TOF-MS and MS/MS analysis of methylation products, SMYD2; details: 200 nM KMT, 80 μM peptide, 50 μM SAM, 1 hour, room temperature; MALDI-TOF-MS (Fig. 3C)
Description: as §2

[9] = target: T1, SMYD2; assay: IC50 measurements of Nle peptide inhibitors of SMYD2 using PER2 as a substrate (SPA); details: 200 nM SMYD2, 50 μM SAM, 5 μM PER2 peptide as substrate, mean of three (Fig. 4E), IC50 values not given
Description: as §1

SHLKSKK [p53 K370, peptide corresponding to previously reported SMYD2 substrate p53 K370, reference compound]
kinetic model of SMYD2 methylation [1]: standard Michaelis-Menten (MM) model
kinetic model of SMYD2 methylation ([1]; listed as p53): classical MM kinetics

DKLKSKR [PER2 derivative peptide with aspartic acid in the P−3 position]
kinetic model of SMYD2 methylation [1]: followed a classical MM model

RKLKEKR [PER2 derivative peptide with glutamic acid in the P+1 position]
rate of methylation by SMYD2 (substrate efficiency) [2]: equally poor SMYD2 substrates

RRSKRRK [SCN5A K477, optimal SET7/9 substrate predicted by K-OPL]
rate of methylation by SET7/9 (substrate efficiency) [3]: methylated at a faster rate than p53 K372
methylation products with SET7/9 [4]: addition of a single methyl group

WKLKSKR [optimal K-OPL-derived SMYD2 substrate, not found in any human protein]
rate of methylation by SMYD2 (substrate efficiency) [2]: increased the rate of methylation
kinetic model of SMYD2 methylation [1]: consistent with substrate inhibition

PRDM11: recombinant PRDM11 (amino acids 79 to 314)
methylation of recombinant protein substrate by SMYD2 [5]: methylated by SMYD2; also recorded: at least as efficiently as the known substrate, p53

RKDKSKR [PER2 derivative peptide with aspartic acid in the P−1 position]
rate of methylation by SMYD2 (substrate efficiency) [2]: equally poor SMYD2 substrates

TARKRFK [optimal G9a peptide substrate derived from the K-OPL profile]
rate of methylation by G9a (substrate efficiency) [6]: more efficient substrate than H3K9 or WIZ
methylation products with G9a [7]: both monomethyl and dimethyl products

RKLKSKR [PER2 K798, peptide corresponding to lysine 798 of PER2; SMYD2 substrate]
rate of methylation by SMYD2 (substrate efficiency) [2]: more efficient substrate than peptides corresponding to previously reported SMYD2 substrates p53 K370 and MAPKAPK3 K355
methylation products with SMYD2 [8]: addition of a single methyl group

RKD[Nle]SKR [Nle derivative of RKDKSKR]
inhibition of SMYD2 methylation of PER2 [9]: less effective

PRDM11 K89D: PRDM11 mutant predicted to render this SMYD2 substrate deficient
methylation of recombinant protein substrate by SMYD2 [5]: reduced compared to the wild-type PRDM11

Source: paper PMC6261651, “A functional proteomics platform to reveal the sequence determinants of lysine methyltransferase substrate selectivity” (Science Advances, 2018)
